One experiment deals with T1, full length human TPH1 (Homo sapiens, UniProt P17752).
T1 construct: To generate the enzyme, full length human TPH1 is cloned into the plasmid pET20b(+); made in house; host or cells: E. coli
T1 sequence (P17752 1-444): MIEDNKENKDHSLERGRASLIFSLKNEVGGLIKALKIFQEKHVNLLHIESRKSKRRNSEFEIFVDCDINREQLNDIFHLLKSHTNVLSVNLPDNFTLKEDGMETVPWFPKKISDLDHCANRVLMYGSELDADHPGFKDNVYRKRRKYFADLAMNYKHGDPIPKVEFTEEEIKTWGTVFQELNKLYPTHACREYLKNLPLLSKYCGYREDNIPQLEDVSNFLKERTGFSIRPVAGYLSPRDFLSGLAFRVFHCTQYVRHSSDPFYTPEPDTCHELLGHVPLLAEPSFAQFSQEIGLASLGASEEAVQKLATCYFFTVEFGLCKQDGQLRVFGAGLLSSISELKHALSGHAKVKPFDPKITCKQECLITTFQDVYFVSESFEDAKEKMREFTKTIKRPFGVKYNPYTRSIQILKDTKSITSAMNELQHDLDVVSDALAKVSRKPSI
The experiment can be described thus: Biochemical in vitro assay using fluorescence readout (TPH1 enzyme activity). Particulars: Table 1, mean where determined several times. Put shortly: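 E. coli-expressed full-length human TPH1 (40-80 nM), affinity- and size-exclusion-purified, incubated 60 min at 15° C. in 0.1M Tris-HCl pH 7.6 with 1 mM DTT, 0.2 mg/ml catalase, 100 μM 6-methyltetrahydropterine and 40 μM L-tryptophan. 5-Hydroxy-L-tryptophan read by fluorescence (ex 300/em 540 nm) after HClO4 quench; IC50 versus vehicle, mean where repeated.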
As a reminder, the IC50 is the point on the concentration scale where inhibition reaches its midpoint. A low value points to inhibition by little substance. The compound `CN(C)c1ncc(C2c3c(nc4n3CCNC4)CCN2C(=O)COc2ccc(N3CCOCC3)nc2Cl)s1` (stereo not shown) [Example 5.6.1, 2-((2-chloro-6-morpholinopyridin-3-yl)oxy)-1-(1-(2-(dimethylamino)thiazol-5-yl)-3,4,6,7,8,9-hexahydropyrido[4′,3′:4,5]imidazo[1,2-a]pyrazin-2(1H)-yl)ethanone] registered an IC50 of 415 nM.

For the compound `Cc1ccc(C2c3c(nc4n3CCCC4)CCN2C(=O)COc2ccc(N3CCCS3(=O)=O)nc2Cl)c(F)c1F` (stereo not shown) [Example 1.9.6, 2-((2-chloro-6-(1,1-dioxidoisothiazolidin-2-yl)pyridin-3-yl)oxy)-1-(1-(2,3-difluoro-4-methylphenyl)-3,4,6,7,8,9-hexahydroimidazo[1,2-a:5,4-c′]dipyridin-2(1H)-yl)ethanone], the IC50 amounted to 9 nM.

The compound `CN(C)C(=O)c1ccc(OCC(=O)N2CCc3nc4n(c3C2c2sccc2F)CCS4)c(Cl)n1` (stereo not shown) [Example 4.6.1, 6-chloro-5-(2-(5-(3-fluorothiophen-2-yl)-2,3,7,8-tetrahydrothiazolo[2′,3′:2,3]imidazo[4,5-c]pyridin-6(5H)-yl)-2-oxoethoxy)-N,N-dimethylpicolinamide] yielded an IC50 of 28 nM.

Compound `CS(=O)(=O)Nc1ccc(OCC(=O)N2CCc3nc4n(c3C2c2ccc(C3CC3)cc2F)CCCC4)c(Cl)n1` (stereo not shown) [Example 1.8.3, N-(6-chloro-5-(2-(1-(4-cyclopropyl-2-fluorophenyl)-3,4,6,7,8,9-hexahydroimidazo[1,2-a:5,4-c′]dipyridin-2(1H)-yl)-2-oxoethoxy)pyridin-2-yl)methanesulfonamide] registered an IC50 of 22 nM.

For `CS(=O)(=O)Nc1ccc(OCC(=O)N2CCc3nc4n(c3C2c2ccc(OC(F)(F)F)cc2F)CCCC4)c(Cl)n1` (stereo not shown) [Example 1.20.2, N-(6-chloro-5-(2-(1-(2-fluoro-4-(trifluoromethoxy)phenyl)-3,4,6,7,8,9-hexahydroimidazo[1,2-a:5,4-c′]dipyridin-2(1H)-yl)-2-oxoethoxy)pyridin-2-yl)methanesulfonamide], the IC50 is 37 nM.

`CC(C)(C)OC(=O)N1CCn2c(nc3c2C(c2ccc(C4CC4)cc2F)N(C(=O)COc2ccc(N4CCOCC4)cc2Cl)CC3)C1` (stereo not shown) [Example 5.2.2, tert-butyl 2-(2-(2-chloro-4-morpholinophenoxy)acetyl)-1-(4-cyclopropyl-2-fluorophenyl)-1,2,3,4,8,9-hexahydropyrido[4′,3′:4,5]imidazo[1,2-a]pyrazine-7(6H)-carboxylate] displayed an IC50 of 121 nM.

On to `CCc1nc(C(=O)NC2CC2)ccc1OCC(=O)N1CCc2nc3n(c2C1c1ccc(C)c(F)c1F)CCCC3` (stereo not shown) [Example 1.9.10, N-cyclopropyl-5-(2-(1-(2,3-difluoro-4-methylphenyl)-3,4,6,7,8,9-hexahydroimidazo[1,2-a:5,4-c′]dipyridin-2(1H)-yl)-2-oxoethoxy)-6-ethylpicolinamide], for which the IC50 came out at 9 nM.

Consider `COCCOc1ccc(C2c3c(nc4n3CCCC4)CCN2C(=O)COc2ccc(NS(C)(=O)=O)nc2Cl)c(F)c1` (stereo not shown) [Example 1.27.2, N-(6-chloro-5-(2-(1-(2-fluoro-4-(2-methoxyethoxy)phenyl)-3,4,6,7,8,9-hexahydroimidazo[1,2-a:5,4-c′]dipyridin-2(1H)-yl)-2-oxoethoxy)pyridin-2-yl)methanesulfonamide], for which the half-maximal inhibitory concentration (IC50) was found to be 34 nM. Compared with the last compound, the IC50 is about 3.8-fold higher.

`CC(=O)N1CCn2c(nc3c2C(c2ccc(C4CC4)cc2F)N(C(=O)COc2ccc(N4CCOCC4)cc2Cl)CC3)C1` (stereo not shown) [Example 5.2.5, 1-(7-acetyl-1-(4-cyclopropyl-2-fluorophenyl)-3,4,6,7,8,9-hexahydropyrido[4′,3′:4,5]imidazo[1,2-a]pyrazin-2(1H)-yl)-2-(2-chloro-4-morpholinophenoxy)ethanone] registered an IC50 of 7 nM.

Still in this experiment, the particulars now being: Table 2.
For `CC(C)(C)OC(=O)N1CCn2c(nc3c2C(c2cc(C(=O)NC#N)cs2)N(C(=O)COc2ccc(N4CCOCC4)nc2Cl)CC3)C1` (stereo not shown) [Example 5.14.1, Tert-butyl 2-(2-((2-chloro-6-morpholinopyridin-3-yl)oxy)acetyl)-1-(4-(cyanocarbamoyl)thiophen-2-yl)-1,2,3,4,8,9-hexahydropyrido[4′,3′:4,5]imidazo[1,2-a]pyrazine-7(6H)-carboxylate], the midpoint of inhibition, the IC50, lay at 341 nM.

The values above are taken from patent US10189839B2, “Tricyclic imidazole compounds as inhibitors of tryptophan hydroxylase” (ACTELION PHARMACEUTICALS LTD, priority 2013, dated 2019).
